# From patent US20240392348A1, “METHODS AND COMPOSITIONS USEFUL FOR NUCLEIC ACID SEQUENCING” (Singular Genomics Systems, Inc., priority 2021, published 2024)
# System: polymerase
# Assay type: biochemical
# Source text: The incorporation score is a direct reflection of the incorporation half time; +++ refers to 4 to 14 seconds, ++ refers to 15 to 25 seconds, and + refers to greater than 25 seconds. The next base incorporation score reflects the incorporation half time for the next base, C refers to 20 to 100 seconds, B refers to 101 to 200 seconds, and A refers to greater than 200 seconds.
compound,measurement,setting,value
O=C(O)CCCC[C@@H]1SC[C@@H]2NC(=O)N[C@@H]21 [biotin],incorporation score,nucleobase not stated,+ (+ refers to greater than 25 seconds)
same,incorporation halftime,same experimental conditions for biotin and rhodamine dye,28 s
